Test results reported in US9302999B2, “Substituted triazoles as herbicides” (E. I. DU PONT DE NEMOURS AND COMPANY, priority 2012, dated 2016).

Columns and labels:
Format in all cases: in vivo
[1] = tested on: galium (catchweed bedstraw, Galium aparine); assay: Test D pre-/postemergence: galium; settings: Postemergence; for Plant response rating, Galium: scale 0 to 100
Procedure, shortened: (§1)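 Scores run from 0 (no effect) to 100 (complete control), assigned by visual comparison with controls after 14 to 21 days in a controlled environment. Both preemergence application to silt loam and postemergence application to 1- to 4-leaf plants were tested.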

[2] = tested on: common (oilseed) sunflower (Helianthus annuus); assay: Test C pre-/postemergence: sunflower; settings: Preemergence
Description: Seeds of plant species selected from blackgrass (Alopecurus myosuroides), bromegrass, downy (downy bromegrass, Bromus tectorum), foxtail, green (green foxtail, Setaria viridis), ryegrass, Italian (Italian ryegrass, Lolium multiflorum), winter wheat (Triticum aestivum), wild oat (Avena fatua), galium (catchweed bedstraw, Galium aparine), bermudagrass (Cynodon dactylon), surinam grass (Brachiaria decumbens), cocklebur (common cocklebur, Xanthium strumarium), corn (Zea mays), large crabgrass (Digitaria sanguinalis), woolly cupgrass (Eriochloa villosa), foxtail, giant (giant foxtail, Setaria faberii), goosegrass (Eleusine indica), johnsongrass (Sorghum halepense), kochia (Kochia scoparia), lambsquarters (Chenopodium album), morningglory (Ipomoea coccinea), nightshade (eastern black nightshade, Solanum ptycanthum), nutsedge, yellow (yellow nutsedge, Cyperus esculentus), pigweed (Amaranthus retroflexus), ragweed (common ragweed, Ambrosia elation), soybean (Glycine max), common (oilseed) sunflower (Helianthus annuus), Russian thistle (Salsola kali) and velvetleaf (Abutilon theophrasti) were planted into a blend of loam soil and sand and treated preemergence with test chemicals formulated in a non-phytotoxic solvent mixture which included a surfactant.
At the same time, plants selected from these crop and weed species and also barley (winter barley, Hordeum vulgare), canarygrass (Phalaris minor), chickweed (common chickweed, Stellaria media) windgrass (Apera spica-venti) and deadnettle (henbit deadnettle, Lamium amplexicaule) were planted in pots containing Redi-Earth® planting medium (Scotts Company, 14111 Scottslawn Road, Marysville, Ohio 43041) comprising spaghnum peat moss, vermiculite, wetting agent and starter nutrients and treated with postemergence applications of test chemicals formulated in the same manner. Plants ranged in height from 2 to 18 cm (1- to 4-leaf stage) for postemergence treatments.
Treated plants and controls were maintained in a greenhouse for 13 to 15 days, after which time all species were compared to controls and visually evaluated. Plant response ratings, summarized in Table C, are based on a scale of 0 to 100 where 0 is no effect and 100 is complete control. A dash (-) response means no test result.

[3] = tested on: ducksalad (Heteranthera limosa); assay: Test B flooded paddy: ducksalad; settings: Flood; 250 g ai/ha; applied to paddy water at 2-leaf stage; visually evaluated after 13 to 15 days
Procedure, shortened: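 Two-leaf-stage plants, pots flooded (3 cm above soil) and treated through the water, which stayed at that depth. After 13–15 days in greenhouse conditions, visual assessment versus controls: 0 is no effect, 100 complete control, dash means no result.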

[4] = tested on: ragweed (common ragweed, Ambrosia elation); assay: Test C pre-/postemergence: ragweed
Procedure, shortened: (§2)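 Visual injury scored 0–100 (100 = complete control) against untreated controls after 13–15 greenhouse days. Surfactant-containing solvent formulations applied either to soil after sowing (loam/sand) or over 1- to 4-leaf plants, 2–18 cm tall.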

kochia (Kochia scoparia) = assay: Test D pre-/postemergence: kochia
Procedure, shortened: as §1

[5] = tested on: velvetleaf (Abutilon theophrasti); assay: Test C pre-/postemergence: velvetleaf
Procedure, shortened: as §2

[6] = tested on: field violet (Viola arvensis); assay: Test D pre-/postemergence: field violet
Procedure, shortened: as §1

[7] = tested on: large crabgrass (Digitaria sanguinalis); assay: Test C pre-/postemergence: large crabgrass
Procedure, shortened: as §2

[8] = 31 g ai/ha, scale 0 to 100 (0 no effect, 100 complete control)
[9] = 62 g ai/ha, scale 0 to 100 (0 no effect, 100 complete control)
[10] = 125 g ai/ha, scale 0 to 100, 0 no effect, 100 complete control
[11] = 31 g ai/ha, scale of 0 to 100, 0 is no effect, 100 is complete control
[12] = 62 g ai/ha, scale of 0 to 100, 0 is no effect, 100 is complete control
[13] = 250 g ai/ha, scale 0 to 100, 0 no effect, 100 complete control
[14] = Preemergence, 31 g ai/ha, scale of 0 to 100, 0 is no effect, 100 is complete control
[15] = Preemergence, 62 g ai/ha, scale of 0 to 100, 0 is no effect, 100 is complete control
[16] = Preemergence, 125 g ai/ha, scale 0 to 100, 0 no effect, 100 complete control
[17] = Preemergence, 250 g ai/ha, scale 0 to 100, 0 no effect, 100 complete control
[18] = Postemergence, 31 g ai/ha, scale 0 to 100 (0 no effect, 100 complete control)
[19] = Postemergence, 62 g ai/ha, scale 0 to 100 (0 no effect, 100 complete control)
[20] = Postemergence, 125 g ai/ha, scale 0 to 100, 0 no effect, 100 complete control
[21] = Postemergence, 16 g ai/ha, scale 0 to 100
[22] = Preemergence, 16 g ai/ha, scale 0 to 100 (0 no effect, 100 complete control)
[23] = Preemergence, 31 g ai/ha, scale 0 to 100 (0 no effect, 100 complete control)
[24] = Preemergence, 62 g ai/ha, scale 0 to 100
[25] = Preemergence, 125 g ai/ha, scale 0 to 100
[26] = Postemergence, 250 g ai/ha, scale 0 to 100
[27] = Postemergence, 8 g ai/ha, scale 0 to 100

## Cc1nn(-c2ccc(F)c(C(F)(F)F)c2)nc1Oc1ccnc(C(F)(F)F)c1 [Compound 147]
[1]; [8]
  Plant response rating: Galium: 65
[1]; [9]
  Plant response rating: Galium: 75
[1]; [10]
  Plant response rating: Galium: 90
[1]; 16 g ai/ha
  Plant response rating, Galium: 55
[2]; [11]
  Plant response rating, Sunflower: 15
[2]; [12]
  Plant response rating, Sunflower: 15
[2]; [10]
  Plant response rating, Sunflower: 15
[2]; [13]
  Plant response rating, Sunflower: 25
[3]
  Plant response rating, Ducksalad (0 to 100 scale, 0 is no effect, 100 is complete control): 40
[4]; [14]
  Plant response rating, Ragweed: 25
[4]; [15]
  Plant response rating, Ragweed: 40
[4]; [16]
  Plant response rating, Ragweed: 70
[4]; [17]
  Plant response rating, Ragweed: 80
Kochia (Kochia scoparia); [18]
  Plant response rating: Kochia: 85
Kochia (Kochia scoparia); [19]
  Plant response rating: Kochia: 90
Kochia (Kochia scoparia); [20]
  Plant response rating: Kochia: 95
Kochia (Kochia scoparia); [21]
  Plant response rating, Kochia: 70
Kochia (Kochia scoparia); [22]
  Plant response rating, Kochia: 15
Kochia (Kochia scoparia); [23]
  Plant response rating, Kochia: 15
Kochia (Kochia scoparia); [24]
  Plant response rating, Kochia: 50
Kochia (Kochia scoparia); [25]
  Plant response rating, Kochia: 70
[5]; [14]
  Plant response rating, Velvetleaf: 25
[5]; [15]
  Plant response rating, Velvetleaf: 55
[5]; [16]
  Plant response rating, Velvetleaf: 60
[5]; [17]
  Plant response rating, Velvetleaf: 100
[6]; [18]
  Plant response rating: Field Violet: 95
[6]; [19]
  Plant response rating: Field Violet: 100
[6]; [20]
  Plant response rating: Field Violet: 90
[6]; [21]
  Plant response rating, Field Violet: 95
[6]; [22]
  Plant response rating, Field Violet: 75
[6]; [23]
  Plant response rating, Field Violet: 100
[6]; [24]
  Plant response rating, Field Violet: 95
[6]; [25]
  Plant response rating, Field Violet: 100
[7]; [14]
  Plant response rating, Crabgrass, Large: 98
[7]; [15]
  Plant response rating, Crabgrass, Large: 100
[7]; [16]
  Plant response rating, Crabgrass, Large: 100
[7]; [17]
  Plant response rating, Crabgrass, Large: 100

## Cc1nn(-c2ccc(F)c(F)c2)nc1Oc1ccnc(C(F)(F)F)c1 [Compound 145]
[1]; [8]
  Plant response rating: Galium: 35
[1]; [9]
  Plant response rating: Galium: 40
[1]; [10]
  Plant response rating: Galium: 70
[1]; 8 g ai/ha
  Plant response rating, Galium: 5
[1]; 16 g ai/ha
  Plant response rating, Galium: 30
[2]; [11]
  Plant response rating, Sunflower: 0
[2]; [12]
  Plant response rating, Sunflower: 5
[2]; [10]
  Plant response rating, Sunflower: 20
[2]; [13]
  Plant response rating, Sunflower: 25
[3]
  Plant response rating, Ducksalad (0 to 100 scale, 0 is no effect, 100 is complete control): 60
[4]; [18]
  Plant response rating, Ragweed: 60
[4]; [20]
  Plant response rating, Ragweed: 70
[4]; [26]
  Plant response rating, Ragweed: 70
[4]; [14]
  Plant response rating, Ragweed: 0
[4]; [15]
  Plant response rating, Ragweed: 10
[4]; [16]
  Plant response rating, Ragweed: 40
[4]; [17]
  Plant response rating, Ragweed: 55
Kochia (Kochia scoparia); [18]
  Plant response rating: Kochia: 98
Kochia (Kochia scoparia); [19]
  Plant response rating: Kochia: 100
Kochia (Kochia scoparia); [20]
  Plant response rating: Kochia: 100
Kochia (Kochia scoparia); [27]
  Plant response rating, Kochia: 80
Kochia (Kochia scoparia); [21]
  Plant response rating, Kochia: 90
[5]; [18]
  Plant response rating, Velvetleaf: 35
[5]; [19]
  Plant response rating, Velvetleaf: 35
[5]; [20]
  Plant response rating, Velvetleaf: 50
[5]; [26]
  Plant response rating, Velvetleaf: 60
[5]; [14]
  Plant response rating, Velvetleaf: 0
[5]; [15]
  Plant response rating, Velvetleaf: 10
[5]; [16]
  Plant response rating, Velvetleaf: 75
[5]; [17]
  Plant response rating, Velvetleaf: 85
[6]; [18]
  Plant response rating: Field Violet: 75
[6]; [19]
  Plant response rating: Field Violet: 95
[6]; [20]
  Plant response rating: Field Violet: 95
[6]; [27]
  Plant response rating, Field Violet: 70
[6]; [21]
  Plant response rating, Field Violet: 80
[7]; [18]
  Plant response rating, Crabgrass, Large: 25
[7]; [19]
  Plant response rating, Crabgrass, Large: 50
[7]; [20]
  Plant response rating, Crabgrass, Large: 85
[7]; [26]
  Plant response rating, Crabgrass, Large: 95
[7]; [14]
  Plant response rating, Crabgrass, Large: 98
[7]; [15]
  Plant response rating, Crabgrass, Large: 100
[7]; [16]
  Plant response rating, Crabgrass, Large: 100
[7]; [17]
  Plant response rating, Crabgrass, Large: 100
